Data from patent publication US20220274979A1 (Bayer Pharma Aktiengesellschaft, priority 2018, published 2022).

Key:
[1] = molecular target: T1, hK-RasG12C - hSOS1 interaction (Homo sapiens, UniProt Q07889); assay: Biochemical Assay 1: hK-RasG12C interaction assay with hSOS1 (HTRF); type: binding; conditions: for IC50: values expressed as IC50
T1 construct: hSOS1 (amino acid 564-1049); made in house; host or cells: E. coli BL21 (DE3)
T1 sequence (Q07889 with tags, fused parts or gaps): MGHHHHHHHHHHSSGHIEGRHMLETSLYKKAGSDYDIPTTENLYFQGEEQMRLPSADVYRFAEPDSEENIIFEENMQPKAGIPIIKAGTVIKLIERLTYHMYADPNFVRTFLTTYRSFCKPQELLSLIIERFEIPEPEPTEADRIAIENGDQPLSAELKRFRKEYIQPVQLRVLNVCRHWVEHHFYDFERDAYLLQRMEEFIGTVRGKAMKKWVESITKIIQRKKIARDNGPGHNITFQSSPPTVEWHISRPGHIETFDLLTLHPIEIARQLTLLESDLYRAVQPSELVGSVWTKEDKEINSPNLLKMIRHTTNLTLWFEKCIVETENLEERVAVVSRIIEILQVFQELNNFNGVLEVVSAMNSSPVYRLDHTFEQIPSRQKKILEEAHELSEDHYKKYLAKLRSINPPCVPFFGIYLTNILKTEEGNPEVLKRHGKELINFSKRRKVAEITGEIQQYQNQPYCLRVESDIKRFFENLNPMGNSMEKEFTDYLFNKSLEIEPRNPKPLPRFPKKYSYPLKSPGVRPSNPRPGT
Outline: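 HTRF signal between GST-hK-RasG12C (10 nM working solution, anti-GST-Eu) and His-hSOS1 (20 nM working solution, anti-6His-XL665) was read in HEPES pH 7.4 buffer with 10 mM EDTA, 1 mM DTT and 100 mM KF at 20 °C.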

[2] = molecular target: T2, Epidermal Growth Factor Receptor (EGFR) (Homo sapiens, UniProt P00533); assay: EGFR kinase assay (TR-FRET); type: biochemical; conditions: 10 μM ATP; read-out: EGFR kinase inhibition IC50
T2 construct: purchased Sigma-Aldrich E3641
Outline: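 EGFR purified from A431 cells pre-incubated 15 min with compound, then reacted 20 min at 22 °C with 10 μM ATP and 1 μM biotinylated peptide (final) in HEPES pH 7.0 with Mg2+/Mn2+. Phosphopeptide detected by TR-FRET (Tb anti-phosphotyrosine/streptavidin-XL665), 665/620 nm emission ratio.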

T2 sequence (P00533 25-1210): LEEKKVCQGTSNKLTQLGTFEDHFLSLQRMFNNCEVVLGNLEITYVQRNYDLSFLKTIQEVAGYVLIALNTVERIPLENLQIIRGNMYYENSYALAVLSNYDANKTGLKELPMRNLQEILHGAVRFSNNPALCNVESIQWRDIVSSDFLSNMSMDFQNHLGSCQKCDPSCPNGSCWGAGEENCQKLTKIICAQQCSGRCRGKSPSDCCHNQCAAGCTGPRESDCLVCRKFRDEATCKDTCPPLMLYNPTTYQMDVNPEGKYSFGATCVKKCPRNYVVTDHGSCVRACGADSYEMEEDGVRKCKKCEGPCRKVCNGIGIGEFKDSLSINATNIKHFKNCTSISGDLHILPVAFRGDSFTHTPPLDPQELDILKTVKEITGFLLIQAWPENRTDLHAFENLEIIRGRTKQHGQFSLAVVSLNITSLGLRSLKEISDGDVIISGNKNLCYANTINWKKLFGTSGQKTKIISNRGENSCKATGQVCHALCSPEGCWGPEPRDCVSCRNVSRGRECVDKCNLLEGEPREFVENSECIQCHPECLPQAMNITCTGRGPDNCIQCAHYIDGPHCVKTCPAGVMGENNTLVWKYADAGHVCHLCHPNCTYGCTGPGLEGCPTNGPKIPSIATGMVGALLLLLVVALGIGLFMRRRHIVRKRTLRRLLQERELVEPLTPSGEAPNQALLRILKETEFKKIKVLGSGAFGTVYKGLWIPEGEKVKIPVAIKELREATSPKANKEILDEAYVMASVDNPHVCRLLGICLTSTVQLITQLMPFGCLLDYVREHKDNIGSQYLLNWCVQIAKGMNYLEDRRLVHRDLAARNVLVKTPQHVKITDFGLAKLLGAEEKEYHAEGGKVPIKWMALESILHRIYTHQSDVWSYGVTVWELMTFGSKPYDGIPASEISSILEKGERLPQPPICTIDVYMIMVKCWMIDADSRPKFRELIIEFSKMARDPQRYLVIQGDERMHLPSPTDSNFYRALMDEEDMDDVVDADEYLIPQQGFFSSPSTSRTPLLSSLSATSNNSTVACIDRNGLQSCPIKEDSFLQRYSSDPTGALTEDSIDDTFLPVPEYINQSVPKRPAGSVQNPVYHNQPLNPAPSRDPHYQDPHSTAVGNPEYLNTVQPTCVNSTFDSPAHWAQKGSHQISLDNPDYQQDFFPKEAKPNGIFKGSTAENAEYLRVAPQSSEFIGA

Structure (SMILES)	IC50 [1] [µM]	IC50 [2] [µM]	inhibition at 20 µM ([1]; read-out: Assay 1 (hKRAS, hSOS Interaction) activity (expressed as IC50, or as % inhibition at 20 μM)) [%]
CCOc1cc2c(N[C@H](C)c3cccc(S(C)(=O)=O)c3)nc(C)nc2cn1 [Example 7, 6-ethoxy-2-methyl-N-{(1R)-1-[3-(methylsulfonyl)phenyl]ethyl}pyrido[3,4-d]pyrimidin-4-amine]	0.633	> 20	
COc1ncc2nc(C)nc(N[C@H](C)c3cccc(Br)c3)c2n1 [Example 24, N-[(1R)-1-(3-bromophenyl)ethyl]-6-methoxy-2-methylpyrimido[5,4-d]pyrimidin-4-amine]	9.41	> 20	
Cc1nc(NC(C)c2ccc(-c3ccccc3CN(C)C)s2)c2cc(N3CC(NC(=O)Cc4ccccc4)C3)ncc2n1 (stereo not drawn) [Example 89, N-[1-(4-{[1-(5-{2-[(dimethylamino)methyl]phenyl}thiophen-2-yl)ethyl]amino}-2-methylpyrido[3,4-d]pyrimidin-6-yl)azetidin-3-yl]-2-phenylacetamide]	0.0444	> 20	
Cc1nc(NC(C)c2ccc(Br)s2)c2cc(F)ncc2n1 (stereo not drawn) [Example 35]		> 20	23.5
Cc1nc(N[C@H](C)c2cccc(Br)c2)c2nc(N3CCOCC3)ncc2n1 [Example 22, N-[(1R)-1-(3-bromophenyl)ethyl]-2-methyl-6-(morpholin-4-yl)pyrimido[5,4-d]pyrimidin-4-amine]	1.62	> 20	
CCOc1ncc2nc(C)nc(N[C@H](C)c3cccc(Br)c3)c2n1 [Example 23, N-[(1R)-1-(3-bromophenyl)ethyl]-6-ethoxy-2-methylpyrimido[5,4-d]pyrimidin-4-amine]	4.35	> 20	
Cc1nc(N[C@H](C)c2cccc(Br)c2)c2cc(NCCN3CCOCC3)ncc2n1 [Example 39]	0.876	> 20	
Cc1nc(NC(C)c2ccc(-c3ccccc3CN(C)C)s2)c2cc(N3CC(NC(=O)CC4CC4)C3)ncc2n1 (stereo not drawn) [Example 91, 2-cyclopropyl-N-[1-(4-{[1-(5-{2-[(dimethylamino)methyl]phenyl}thiophen-2-yl)ethyl]amino}-2-methylpyrido[3,4-d]pyrimidin-6-yl)azetidin-3-yl]acetamide]	0.0551	> 20	
COc1cc2c(N[C@H](C)c3ccc(F)c(Cl)c3)nc(C)nc2cn1 [Example 8]	5.49	> 20	
Cc1nc(NC(C)c2ccc(-c3ccccc3CN(C)C)s2)c2cc(Oc3cccc(O)c3)ncc2n1 (stereo not drawn) [Example 52, 3-[(4-{[1-(5-{2-[(dimethylamino)methyl]phenyl}thiophen-2-yl)ethyl]amino}-2-methylpyrido[3,4-d]pyrimidin-6-yl)oxy]phenol]	0.202	> 20	
Cc1nc(N[C@H](C)c2cccc(Br)c2)c2cc(NC3CCOCC3)ncc2n1 [Example 46]	1.29	> 20	
Cc1nc(NC(C)c2ccc(-c3ccccc3CN(C)C)s2)c2cc(Oc3cccc(C4=NCCN4C)c3)ncc2n1 (stereo not drawn) [Example 58, N-[1-(5-{2-[(dimethylamino)methyl]phenyl}thiophen-2-yl)ethyl]-2-methyl-6-[3-(1-methyl-4,5-dihydro-1H-imidazol-2-yl)phenoxy]pyrido[3,4-d]pyrimidin-4-amine]	0.117	> 20	
